US7196110B2, “N-substituted tricyclic 3-aminopyrazoles as inhibitors for the treatment of cell proliferative disorders” (Janssen Phamaceutica N.V., priority 2002, dated 2007)
Like-named read-outs stand apart in the source and are kept apart here.

Biological target: T1, PDGF-receptor beta enzyme comprising the tyrosine kinase domain (Homo sapiens, UniProt P09619)
T1 construct: from amino acid 545 to 1106 of GenBank Access NO: AAA36427
Experiment: Inhibition of PDGF-receptor kinase activity (cell-free, PLC1 peptide, 33P Flashplate)
Format: biochemical
Details: for inhibition at 10 µM: compound at 10 uM, read-out: Percent Inhibition @ 10 uM
Summary of the method: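 The IC50 is the inhibitor level halving kinase activity relative to inhibitor-free wells, measured as 33P captured on a streptavidin-bound biotin-PLC1 peptide. The reaction ran 60 min at 30 °C in pH 8 Tris buffer with 1 mM DTT, 5 μM ATP and the 545–1106 kinase-domain enzyme.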

[1] = PDGF-R kinase activity, read-out: IC50

T1 sequence (P09619 545-1106): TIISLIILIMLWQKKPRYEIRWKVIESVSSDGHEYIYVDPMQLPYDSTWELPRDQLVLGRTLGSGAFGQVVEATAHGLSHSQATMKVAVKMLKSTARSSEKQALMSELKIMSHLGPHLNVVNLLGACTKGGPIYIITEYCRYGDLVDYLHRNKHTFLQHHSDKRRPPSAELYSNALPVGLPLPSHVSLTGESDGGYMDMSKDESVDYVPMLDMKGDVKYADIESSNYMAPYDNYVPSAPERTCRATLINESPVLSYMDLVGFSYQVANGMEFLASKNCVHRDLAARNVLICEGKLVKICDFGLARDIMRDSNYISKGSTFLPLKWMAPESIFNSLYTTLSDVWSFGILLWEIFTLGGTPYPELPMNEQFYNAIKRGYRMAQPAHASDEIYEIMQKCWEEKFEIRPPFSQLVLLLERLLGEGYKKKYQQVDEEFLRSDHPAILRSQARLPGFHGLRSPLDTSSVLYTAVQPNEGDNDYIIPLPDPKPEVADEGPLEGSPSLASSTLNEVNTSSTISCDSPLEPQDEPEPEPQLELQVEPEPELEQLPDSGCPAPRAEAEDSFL

| inhibition at 10 µM (PDGF-R kinase activity) | IC50 [1] | IC50 (read-out: IC50 (μM) on PDGF-R kinase activity) | Compound |
| --- | --- | --- | --- |
| 73% | 8.09 µM | – | COc1cc2c(cc1OC)-c1c(c(Nc3cccc(F)c3)nn1C(=O)NCCNC(C)=O)C2 [Compound 526, 3-(3-Fluoro-phenylamino)-6,7-dimethoxy-4H-indeno[1,2-c]pyrazole-1-carboxylic acid (2-acetylamino-ethyl)-amide] |
| 76% | 0.636 µM | – | COc1cc2c(cc1OC)-c1n[nH]c(Nc3cc(F)ccc3F)c1C2 [Compound 55, (2,5-Difluoro-phenyl)-(6,7-dimethoxy-2,4-dihydro-indeno[1,2-c]pyrazol-3-yl)-amine] |
| 63% | 5.95 µM | – | COc1cc2c(cc1OC)-c1n[nH]c(Nc3ccc(N(C)C)cc3)c1C2 [Compound 40] |
| 83% | 0.687 µM | – | COc1cc2c(cc1OC)-c1nn(COC(=O)C(C)(C)C)c(Nc3cccc(F)c3)c1C2 [Compound 408, 2,2-Dimethyl-propionic acid 3-(3-fluoro-phenylamino)-6,7-dimethoxy-4H-indeno[1,2-c]pyrazol-2-ylm ethyl ester] |
| 104% | 0.33 µM | – | CCN(CC)C(=O)CC(=O)n1nc(Nc2cccc(F)c2)c2c1-c1cc(OC)c(OC)cc1C2 [Compound 537, N,N-Diethyl-3-[3-(3-fluoro-phenylamino)-6,7-dimethoxy-4H-indeno[1,2-c]pyrazol-1-yl]-3-oxo-propionamide] |
| 100% | 0.0121 µM | – | CCOc1cc2c(cc1OCCCO)-c1n[nH]c(Nc3cccc(OC)c3)c1C2 [Compound 366, 3-[6-Ethoxy-3-(3-methoxy-phenylamino)-2,4-dihydro-indeno[1,2-c]pyrazol-7-yloxy]-propan-1-ol] |
| 99.5% | 0.0113 µM | – | CCOc1cc2c(cc1OCCCO)-c1n[nH]c(Nc3cccc(F)c3)c1C2 [Compound 365, 3-[6-Ethoxy-3-(3-fluoro-phenylamino)-2,4-dihydro-indeno[1,2-c]pyrazol-7-yloxy]-propan-1-ol] |
| 98.5% | 0.00942 µM | – | COc1cc2c(cc1F)Cc1c-2n[nH]c1Nc1cccc(F)c1 [Compound 357, (6-Fluoro-7-methoxy-2,4-dihydro-indeno[1,2-c]pyrazol-3-yl)-(3-fluoro-phenyl)-amine] |
| 93.5% | 0.084 µM | – | COc1cc2c(cc1OC)-c1n[nH]c(Nc3ccccn3)c1C2 [Compound 562, (6,7-Dimethoxy-2,4-dihydro-indeno[1,2-c]pyrazol-3-yl)-pyridin-2-yl-amine] |
| 83.5% | 1.08 µM | – | COc1cc2c(cc1OC)-c1n[nH]c(Nc3cccc(F)c3Br)c1C2 [Compound 410, (2-Bromo-3-fluoro-phenyl)-(6,7-dimethoxy-2,4-dihydro-indeno[1,2-c]pyrazol-3-yl)-amine] |
| 93.5% | 0.196 µM | – | C=C(C)C(=O)OCCNC(=O)n1nc2c(c1Nc1cccc(F)c1)Cc1cc(OC)c(OC)cc1-2 [Compound 528, 2-Methyl-acrylic acid 2-{[3-(3-fluoro-phenylamino)-6,7-dimethoxy-4H-indeno[1,2-c]pyrazole-2-carbonyl]-amino}-ethyl ester] |
| 77% | 1.1 µM | – | COc1cc2c(cc1OC)-c1n[nH]c(Nc3cccc(Cl)c3Cl)c1C2 [Compound 20, (2,3-Dichloro-phenyl)-(6,7-dimethoxy-2,4-dihydro-indeno[1,2-c]pyrazol-3-yl)-amine] |
| 90% | 0.0744 µM | – | COc1cccc(CNc2[nH]nc3c2Cc2cc(OC)c(OC)cc2-3)c1 [Compound 225, (6,7-Dimethoxy-2,4-dihydro-indeno[1,2-c]pyrazol-3-yl)-(3-methoxy-benzyl)-amine] |
| 60.5% | 54 µM | – | COc1cc2c(cc1OC)-c1c(c(Nc3cccc(F)c3)nn1CC(C)O)C2 (stereo not drawn) [Compound 502, 1-[3-(3-Fluoro-phenylamino)-6,7-dimethoxy-4H-indeno[1,2-c]pyrazol-1-yl]-propan-2-ol] |
| 52% | – | – | COc1cc2c(cc1OC)-c1nn(CCO)c(Nc3cccc(F)c3)c1C2 [Compound 573, 2-[3-(3-Fluoro-phenylamino)-6,7-dimethoxy-4H-indeno[1,2-c]pyrazol-2-yl]-ethanol] |
| 84% | 0.775 µM | – | COc1cc2c(cc1OC)-c1n[nH]c(Nc3ccc(F)c(C(F)(F)F)c3)c1C2 [Compound 212, (6,7-Dimethoxy-2,4-dihydro-indeno[1,2-c]pyrazol-3-yl)-(4-fluoro-3-trifluoromethyl-phenyl)-amine] |

More lines, now with the values behind:

| Compound | inhibition at 10 µM (PDGF-R kinase activity) | IC50 [1] | IC50 (read-out: IC50 (μM) on PDGF-R kinase activity) |
| --- | --- | --- | --- |
| COc1ccc(Nc2[nH]nc3c2Cc2c(C)cccc2-3)c(OC)c1 [Compound 102, (2,4-Dimethoxy-phenyl)-(5-methyl-2,4-dihydro-indeno[1,2-c]pyrazol-3-yl)-amine] | 50% | 3.4 µM | – |
| Fc1cccc(Nc2[nH]nc3c2Cc2cc(F)ccc2-3)c1 [Compound 235, (6-Fluoro-2,4-dihydro-indeno[1,2-c]pyrazol-3-yl)-(3-fluoro-phenyl)-amine] | 86% | 0.211 µM | – |
| OC1c2ccccc2-c2n[nH]c(Nc3ccccc3)c21 (stereo not drawn) [Compound 50, 3-Phenylamino-2,4-dihydro-indeno[1,2-c]pyrazol-4-ol] | 38% | 11.4 µM | – |
| Cc1cccc(CNc2[nH]nc3c2Cc2ccc(C)cc2-3)c1 [Compound 314, (3-Methyl-benzyl)-(7-methyl-2,4-dihydro-indeno[1,2-c]pyrazol-3-yl)-amine] | 76% | 0.894 µM | – |
| CCOc1cc2c(cc1OCC)C(C)c1c-2n[nH]c1Nc1ccc(F)c(Cl)c1 (stereo not drawn) [Compound 347] | 90.5% | 0.545 µM | – |
| COc1ccc2c(c1)Cc1c-2n[nH]c1Nc1cc(F)ccc1F [Compound 87, (2,5-Difluoro-phenyl)-(6-methoxy-2,4-dihydro-indeno[1,2-c]pyrazol-3-yl)-amine] | 91% | 0.069 µM | – |
| COc1ccc(Nc2[nH]nc3c2Cc2cc(F)ccc2-3)cc1Cl [Compound 288, (3-Chloro-4-methoxy-phenyl)-(6-fluoro-2,4-dihydro-indeno[1,2-c]pyrazol-3-yl)-amine] | 88.5% | 0.219 µM | – |
| COc1cccc(Nc2[nH]nc3c2Cc2cc(N4CCN(C)CC4)ccc2-3)c1 [Compound 123, (3-Methoxy-phenyl)-[6-(4-methyl-piperazin-1-yl)-2,4-dihydro-indeno[1,2-c]pyrazol-3-yl]-amine] | 87% | 0.228 µM | – |
| COc1cc2c(cc1OC)-c1n[nH]c(Nc3cccc(C(=O)NCCOCCOCCOCCNC(=O)CCCCC4SCC5NC(=O)NC54)c3)c1C2 (stereo not drawn) [Compound 601, 3-(6,7-Dimethoxy-2,4-dihydro-indeno[1,2-c]pyrazol-3-ylamino)-N-{2-[2-(2-{2-[5-(2-oxo-hexahydro-thieno[3,4-d]imidazol-6-yl)-pentanoylamino]-ethoxy}-ethoxy)-ethoxy]-ethyl}-benzamide] | 89% | – | 2.29 µM |
| CCOc1cc2c(cc1OCC)-c1n[nH]c(Nc3ccc(F)c(Cl)c3)c1C2 [Compound 246, (3-Chloro-4-fluoro-phenyl)-(6,7-dioethoxy-2,4-dihydro-indeno[1,2-c]pyrazol-3-yl)-amine] | 77% | 0.0121 µM | – |
| Cc1ccc2c(c1)-c1n[nH]c(Nc3cccc(C(F)(F)F)c3)c1C2 [Compound 187, (7-Methyl-2,4-dihydro-indeno[1,2-c]pyrazol-3-yl)-(3-trifluoromethyl-phenyl)-amine] | 35% | – | – |
| Fc1ccc(C(F)(F)F)cc1Nc1[nH]nc2c1Cc1ccccc1-2 [Compound 340, (2,4-Dihydro-indeno[1,2-c]pyrazol-3-yl)-(2-fluoro-5-trifluoromethyl-phenyl)-amine] | 92.5% | 0.105 µM | – |
| Fc1cccc(Nc2[nH]nc3c2Cc2cc(Br)ccc2-3)c1 [Compound 151, (6-Bromo-2,4-dihydro-indeno[1,2-c]pyrazol-3-yl)-(3-fluoro-phenyl)-amine] | 79% | 0.0918 µM | – |
| Fc1ccc2c(c1)Cc1c-2n[nH]c1Nc1cc(C(F)(F)F)cc(C(F)(F)F)c1 [Compound 239, (3,5-Bis-trifluoromethyl-phenyl)-(6-fluoro-2,4-dihydro-indeno[1,2-c]pyrazol-3-yl)-amine] | 91% | 0.138 µM | – |
| COc1ccc2c(c1)Cc1c-2n[nH]c1Nc1ccccc1 [Compound 7, (6-Methoxy-2,4-dihydro-indeno[1,2-c]pyrazol-3-yl)-phenyl-amine] | 92% | 0.217 µM | – |
| COc1cccc(Nc2[nH]nc3c2C(C)(C)c2cc(OC)c(OC)cc2-3)c1 [Compound 488, (6,7-Dimethoxy-4,4-dimethyl-2,4-dihydro-indeno[1,2-c]pyrazol-3-yl)-(3-methoxy-phenyl)-amine] | 33.5% | 39.3 µM | – |
| COc1ccc(OC)c(Nc2[nH]nc3c2C(C)c2cc(OC)c(OC)cc2-3)c1 (stereo not drawn) [Compound 258, (6,7-Dimethoxy-4-methyl-2,4-dihydro-indeno[1,2-c]pyrazol-3-yl)-(2,5-dimethoxy-phenyl)-amine] | 39% | – | – |
| Cc1cccc2c1Cc1c-2n[nH]c1Nc1cc(F)ccc1F [Compound 103, (2,5-Difluoro-phenyl)-(5-methyl-2,4-dihydro-indeno[1,2-c]pyrazol-3-yl)-amine] | 43% | 4.1 µM | – |
| COc1ccc(OC)c(CNc2[nH]nc3c2Cc2cc(F)ccc2-3)c1 [Compound 307, (2,5-Dimethoxy-benzyl)-(6-fluoro-2,4-dihydro-indeno[1,2-c]pyrazol-3-yl)-amine] | 59% | 3.4 µM | – |
| Cc1ccc2c(c1)-c1n[nH]c(Nc3cc(C(C)(C)C)cc(C(C)(C)C)c3)c1C2 [Compound 312, (3,5-Di-tert-butyl-phenyl)-(7-methyl-2,4-dihydro-indeno[1,2-c]pyrazol-3-yl)-amine] | 56.5% | 5.67 µM | – |
